Results: PMC11234063, “Eugenol and lidocaine inhibit voltage-gated Na^+ channels from dorsal root ganglion neurons with different mechanisms” (Frontiers in Pharmacology, 2024)
Values joined by “and” are separate entries in the source; they are usually repeats but may differ in a detail not shown here. Equal entries are not always repeated. Where two headings read alike, the source gives them in different places.

Tests used:
[1] = tested on: TTX-R INa (VGSCs of DRG neurons); format: cell-based, rat
[2] = tested on: VGSCs; set-up: method as in Clarkson et al., 1988; Sheets et al., 2010; conditions: 10-s conditioning pulse; ref Clarkson et al., 1988; Sheets et al., 2010; cited from earlier work
[3] = tested on: total INa (VGSCs of DRG neurons); assay: Steady-state inactivation, 100-ms conditioning pre-pulses, total INa; format: cell-based, rat; conditions: EUG 2 mM, LID 1 mM
[4] = tested on: total INa (VGSCs of DRG neurons); conditions: EUG 2 mM, LID 1 mM
[5] = tested on: TTX-R INa (VGSCs of DRG neurons); format: cell-based, rat; remark: listed apart in the source
[6] = tested on: total INa (VGSCs of DRG neurons); assay: Slow inactivation entry, three-pulse protocol, total INa; format: cell-based, rat
[7] = tested on: total INa (VGSCs naturally expressed on dorsal root ganglion sensory neurons); assay: Dose–response inhibition of total INa peak, whole-cell patch clamp; format: cell-based, rat
[8] = tested on: TTX-R INa (VGSCs of DRG neurons); assay: Voltage dependence of Na+ conductance activation (I-V and G-V curves), TTX-R INa; format: cell-based, rat; conditions: EUG 2 mM, LID 1 mM
[9] = tested on: total INa (VGSCs of DRG neurons); assay: Voltage dependence of Na+ conductance activation (I-V and G-V curves), total INa; format: cell-based, rat; conditions: EUG 2 mM, LID 1 mM
[10] = tested on: TTX-R INa (VGSCs of DRG neurons); assay: Slow inactivation entry, three-pulse protocol, TTX-R INa; format: cell-based, rat
[11] = tested on: persistent total INa (DRG neurons); assay: Persistent total INa at the end of 50-ms depolarizing pulses; format: cell-based, rat; conditions: EUG 2 mM, LID 1 mM
[12] = tested on: total INa (VGSCs of DRG neurons); assay: INa inactivation time constants during test pulse, total INa; format: cell-based, rat
[13] = tested on: TTX-R INa (VGSCs of DRG neurons); format: cell-based, rat; conditions: EUG 2 mM, LID 1 mM
[14] = tested on: total INa (VGSCs of DRG neurons); assay: Inhibition in depolarization time series at 2 and 5 Hz, total INa; format: cell-based, rat; conditions: EUG 2 mM, LID 1 mM
[15] = tested on: TTX-R INa (VGSCs of DRG neurons); format: cell-based, rat; conditions: EUG 2 mM, LID 1 mM; remark: listed apart in the source
[16] = individual cells, during exposure to EUG 2 mM or LID 1 mM

## CCN(CC)CC(=O)Nc1c(C)cccc1C [LID, lidocaine]
[1]
  Effect on inactivation time constants: unaffected
[2]
  Shift of the available curve: 10 mV
[3]; 100-ms conditioning pulse
  Shift of the steady-state inactivation curve, on average: −5 mV
[3]
  Max slope-inact: −10.2 ± 0.50 (n = 6) ns mV/e-fold
  V1/2-inact: −50.6 ± 3.04 (n = 6) mV
[3]; individual cells
  Max slope-inact in individual cells: -10.01 mV/efold and -11.35 mV/efold and -9.163 mV/efold and -11.45 mV/efold and -10.7 mV/efold
  V1/2-inact in individual cells: -42.62 mV and -59.61 mV and -54.7 mV and -48.47 mV and -56.32 mV
[4]
  Time constant of the inhibiting effect increase with P1 duration at −70 mV: 709 ms and ~700 ms
[5]
  Hill coefficient: 0.67 ± 0.088
  Reversibility of inhibition after drug washout: fully reversible
[5]; drug at 0.01 mM
  Dose response curves' data, Average (fractional current): 0.82
[5]; drug at 0.1 mM
  Dose response curves' data, Average (fractional current): 0.78
[5]; drug at 0.3 mM
  Dose response curves' data, Average (fractional current): 0.55
[5]; drug at 1 mM
  Dose response curves' data, Average (fractional current): 0.38
[5]; drug at 3 mM
  Dose response curves' data, Average (fractional current): 0.26
[5]; drug at 10 mM
  Dose response curves' data, Average (fractional current): 0.06
[5]; drug at 30 mM
  Dose response curves' data, Average (fractional current): 0.00
[5]; holding −110 mV, test +20 mV, read-out: IC50
  IC50: 440 ± 87 µM
[5]; time 15 sec, drug exposure
  Time series of INa blockade, Average (normalized current): 0.700
[5]; time 20 sec, drug exposure
  Time series of INa blockade, Average (normalized current): 0.688
[5]; time 25 sec, drug exposure
  Time series of INa blockade, Average (normalized current): 0.698
[5]; time 30 sec, recovery
  Time series of INa blockade, Average (normalized current): 0.954
[5]; time 35 sec, recovery
  Time series of INa blockade, Average (normalized current): 0.981
[5]; time 40 sec, recovery
  Time series of INa blockade, Average (normalized current): 1.000
[6]; EUG 2 mM, LID 1 mM
  Fast inactivation entry time constant: 25.04 ± 10.996 ms
  Fractional current when P1 = 2 m: 0.62 ± 0.067
  Percent fast component (slow inactivation entry): 59.86 ± 4.320 %
  Slow inactivation entry time constant: 292.87 ± 117.879 s
[6]; [16]
  Slow inactivation state entry kinetics of INa, individual cells: 84.13 and 39.12 and 7.878 and 39.45 and 54.65
[7]; LID at 0.5 mM
  Pre-inhibition of total INa: 25%
[7]; total INa
  Reversibility of inhibition after drug washout: fully reversible
[7]; total INa, LID 0.1 mM in the presence of EUG 1.3 mM
  Dose response curves' data, Average (fractional current), LID (EUG 1.3 mM): 0.98
[7]; total INa, LID 0.3 mM in the presence of EUG 1.3 mM
  Dose response curves' data, Average (fractional current), LID (EUG 1.3 mM): 0.63
[7]; total INa, LID 1 mM in the presence of EUG 1.3 mM
  Dose response curves' data, Average (fractional current), LID (EUG 1.3 mM): 0.45
[7]; total INa, LID 3 mM in the presence of EUG 1.3 mM
  Dose response curves' data, Average (fractional current), LID (EUG 1.3 mM): 0.19
[7]; total INa, LID 10 mM in the presence of EUG 1.3 mM
  Dose response curves' data, Average (fractional current), LID (EUG 1.3 mM): 0.08
[7]; total INa, drug alone
  Hill coefficient: 1 and 1.02 ± 0.169
[7]; total INa, drug at 0.001 mM
  Dose response curves' data, Average (fractional current): 1.00
[7]; total INa, drug at 0.03 mM
  Dose response curves' data, Average (fractional current): 0.95
[7]; total INa, drug at 0.1 mM
  Dose response curves' data, Average (fractional current): 0.89
[7]; total INa, drug at 0.3 mM
  Dose response curves' data, Average (fractional current): 0.79
[7]; total INa, drug at 1 mM
  Dose response curves' data, Average (fractional current): 0.67
[7]; total INa, drug at 3 mM
  Dose response curves' data, Average (fractional current): 0.29
[7]; total INa, drug at 10 mM
  Dose response curves' data, Average (fractional current): 0.09
[7]; total INa, holding −110 mV, test +20 mV, drug alone, read-out: IC50
  IC50: 1420 ± 169 µM
[7]; total INa, time 15 sec, drug exposure
  Time series of INa blockade, Average (normalized current): 0.63
[7]; total INa, time 20 sec, drug exposure
  Time series of INa blockade, Average (normalized current): 0.63
[7]; total INa, time 25 sec, drug exposure
  Time series of INa blockade, Average (normalized current): 0.63
[7]; total INa, time 30 sec, recovery
  Time series of INa blockade, Average (normalized current): 0.99
[7]; total INa, time 35 sec, recovery
  Time series of INa blockade, Average (normalized current): 1.01
[7]; total INa, time 40 sec, recovery
  Time series of INa blockade, Average (normalized current): 1.01
[8]
  Max slope-act: 7.6 ± 0.84 (n = 9) mV/e-fold
  V1/2-act: −15.3 ± 3.51 (n = 9) ns mV
[8]; individual cells
  Max slope-act in individual cells: 2.416 mV/efold and 6.095 mV/efold and 7.402 mV/efold and 6.184 mV/efold and 9.974 mV/efold and 8.405 mV/efold and 10.98 mV/efold and 7.92 mV/efold and 8.84 mV/efold
  V1/2-act in individual cells: 2.959 mV and -9.166 mV and -6.571 mV and -19.84 mV and -6.716 mV and -25.02 mV and -21.81 mV and -25.87 mV and -25.3 mV
[9]
  Max slope-act: 5.4 ± 0.55 (n = 5) mV/e-fold
  V1/2-act: −15.6 ± 1.87 (n = 5) ns mV
[9]; individual cells
  Max slope-act in individual cells: 3.305 mV/efold and 5.718 mV/efold and 5.241 mV/efold and 6.129 mV/efold and 6.443 mV/efold
  V1/2-act in individual cells: -10.84 mV and -17.68 mV and -19.58 mV and -11.29 mV and -18.64 mV
[10]; EUG 2 mM, LID 1 mM
  Fast inactivation entry time constant: 33.05 ± 11.57 ms
  Fractional current when P1 = 2 m: 0.76 ± 0.049
  Percent fast component (slow inactivation entry): 35.03 ± 6.913%
  Slow inactivation entry time constant: 287.01 ± 49.765 s
[10]; [16]
  Slow inactivation state entry kinetics of INa, individual cells: 210.90 and 156.80 and 90.580 and 123.40 and 113.30
[11]
  Inhibition of persistent total INa after 50-ms depolarization: fails to inhibit
[12]
  Effect on inactivation time constants: unaffected
[13]; 100-ms conditioning pulse
  Shift of the steady-state inactivation curve, on average: −4 mV
[13]
  Max slope-inact: −7.2 ± 1.24 (n = 9) ns mV/e-fold
  V1/2-inact: −32.6 ± 2.86 (n = 9) mV
[13]; individual cells
  Max slope-inact in individual cells: -4.454 mV/efold and -5.078 mV/efold and -4.311 mV/efold and -4.855 mV/efold and -12.65 mV/efold and -5.321 mV/efold and -10.59 mV/efold and -13.14 mV/efold and -5.017 mV/efold
  V1/2-inact in individual cells: -13.3 mV and -32.45 mV and -43.07 mV and -41.77 mV and -33.88 mV and -29.54 mV and -30.3 mV and -34.82 mV and -34 mV
[14]
  Fractional inhibition, 2 Hz, 1st pulse: 0.46 ± 0.034 (n = 7)
  Fractional inhibition, 2 Hz, 20th pulse: 0.54 ± 0.044 (n = 7)
  Fractional inhibition, 5 Hz, 1st pulse: 0.47 ± 0.021 (n = 5)
  Fractional inhibition, 5 Hz, 20th pulse: 0.81 ± 0.055 (n = 5)
[14]; individual cells
  Fractional current after blockade, 2 Hz, 1st pulse, individual cells: 0.42 and 0.6 and 0.65 and 0.46 and 0.55 and 0.48 and 0.66
  Fractional current after blockade, 2 Hz, 20th pulse, individual cells: 0.57 and 0.34 and 0.45 and 0.42 and 0.58 and 0.31 and 0.51
  Fractional current after blockade, 5 Hz, 1st pulse, individual cells: 0.73 and 0.48 and 0.51 (2×) and 0.60
  Fractional current after blockade, 5 Hz, 20th pulse, individual cells: 0.53 and 0.06 and 0.07 and 0.25 and 0.26
[15]
  Fractional inhibition, 2 Hz, 1st pulse: 0.40 ± 0.025 (n = 8)
  Fractional inhibition, 2 Hz, 20th pulse: 0.55 ± 0.040 (n = 8)
  Fractional inhibition, 5 Hz, 1st pulse: 0.37 ± 0.027 (n = 7)
  Fractional inhibition, 5 Hz, 20th pulse: 0.64 ± 0.054 (n = 7)
[15]; individual cells
  Fractional current after blockade, 2 Hz, 1st pulse, individual cells: 0.58 and 0.49 and 0.64 and 0.53 and 0.56 and 0.59 and 0.67 and 0.68
  Fractional current after blockade, 2 Hz, 20th pulse, individual cells: 0.3 (2×) and 0.5 and 0.51 and 0.46 and 0.57 and 0.50 and 0.41
  Fractional current after blockade, 5 Hz, 1st pulse, individual cells: 0.55 and 0.51 and 0.68 (2×) and 0.62 and 0.69
  Fractional current after blockade, 5 Hz, 20th pulse, individual cells: 0.18 and 0.15 and 0.34 and 0.50 and 0.42
